According to US20040198639A1, “Preserved and stable compositions containing peptide copper complexes and methods related thereto” (ProCyte Corporation, priority 2003, published 2004):

Test: Storage stability of Example 1 solution: amounts of peptide copper complex and preservatives over time
Type: physicochemical
Protocol: The preservatives used are non-formaldehyde-donating preservatives. The solution was placed in a series of small sealed glass vials and stored at room temperature, at 40° C. and at 50° C. At various measured times, the amount of the peptide copper complex and of the preservatives was determined.

| Amounts when Stored at 40° C. (0 weeks) | Amounts when Stored at 40° C. (1 week) | Amounts when Stored at 40° C. (2 weeks) | Amounts when Stored at 40° C. (3 weeks) | Amounts when Stored at 40° C. (4 weeks) | Amounts when Stored at 50° C. (0 weeks) | Amounts when Stored at 50° C. (1 week) | Amounts when Stored at 50° C. (2 weeks) | Amounts when Stored at 50° C. (3 weeks) | Amounts when Stored at 50° C. (4 weeks) | Amounts when Stored at Room Temperature (0 weeks) | Amounts when Stored at Room Temperature (1 week) | Amounts when Stored at Room Temperature (2 weeks) | Amounts when Stored at Room Temperature (3 weeks) | Amounts when Stored at Room Temperature (4 weeks) | Amounts when Stored at Room Temperature (28 weeks) | Molecule |
| --- | --- | --- | --- | --- | --- | --- | --- | --- | --- | --- | --- | --- | --- | --- | --- | --- |
| 1.83 mg/mL | 1.79 mg/mL | 1.80 mg/mL | 1.77 mg/mL | 1.75 mg/mL | 1.83 mg/mL | 1.77 mg/mL | 1.70 mg/mL | 1.65 mg/mL | 1.63 mg/mL | 1.83 mg/mL | 1.81 mg/mL | 1.84 mg/mL | 1.82 mg/mL | 1.81 mg/mL | 1.80 mg/mL | COC(=O)c1ccc(O)cc1 [Methylparaben, methylparaben] |
| 0.18 mg/mL | 0.18 mg/mL | 0.18 mg/mL | 0.18 mg/mL | 0.18 mg/mL | 0.18 mg/mL | 0.18 mg/mL | 0.17 mg/mL | 0.17 mg/mL | 0.17 mg/mL | 0.18 mg/mL | 0.18 mg/mL | 0.18 mg/mL | 0.18 mg/mL | 0.18 mg/mL | 0.18 mg/mL | CCCOC(=O)c1ccc(O)cc1 [Propylparaben, propylparaben] |

| Molecule | Amounts when Stored at 40° C. (0 weeks) | Amounts when Stored at 40° C. (1 week) | Amounts when Stored at 40° C. (2 weeks) | Amounts when Stored at 40° C. (3 weeks) | Amounts when Stored at 40° C. (4 weeks) | Amounts when Stored at 50° C. (0 weeks) | Amounts when Stored at 50° C. (1 week) | Amounts when Stored at 50° C. (2 weeks) | Amounts when Stored at 50° C. (3 weeks) | Amounts when Stored at 50° C. (4 weeks) | Amounts when Stored at Room Temperature (0 weeks) | Amounts when Stored at Room Temperature (1 week) | Amounts when Stored at Room Temperature (2 weeks) | Amounts when Stored at Room Temperature (3 weeks) | Amounts when Stored at Room Temperature (4 weeks) | Amounts when Stored at Room Temperature (28 weeks) |
| --- | --- | --- | --- | --- | --- | --- | --- | --- | --- | --- | --- | --- | --- | --- | --- | --- |
| glycyl-L-histidyl-L-lysine:copper(II) | 1.06 mg/mL | 1.04 mg/mL | 1.07 mg/mL | 1.06 mg/mL | 1.06 mg/mL | 1.06 mg/mL | 1.05 mg/mL | 1.04 mg/mL | 1.04 mg/mL | 1.04 mg/mL | 1.06 mg/mL | 1.05 mg/mL | 1.06 mg/mL | 1.07 mg/mL | 1.07 mg/mL | 1.05 mg/mL |
